Measurements taken from patent publication US9670227B2, “Thienopyrimidine derivatives, a process for their preparation and pharmaceutical compositions containing them” (LES LABORATOIRES SERVIER, priority 2013, dated 2017).
Read-outs that look alike come from different tables or passages of the source.

How the values were obtained:
Mcl-1 protein = Mcl-1 protein (UniProtKB primary accession number: Q07820) (Homo sapiens, UniProt Q07820); assay: Inhibition of Mcl-1 by fluorescence polarisation, Method 1; assay type: binding; details: read-out: IC50 (M) Mcl-1 FP
Mcl-1 protein, sequence (Q07820 whole entry): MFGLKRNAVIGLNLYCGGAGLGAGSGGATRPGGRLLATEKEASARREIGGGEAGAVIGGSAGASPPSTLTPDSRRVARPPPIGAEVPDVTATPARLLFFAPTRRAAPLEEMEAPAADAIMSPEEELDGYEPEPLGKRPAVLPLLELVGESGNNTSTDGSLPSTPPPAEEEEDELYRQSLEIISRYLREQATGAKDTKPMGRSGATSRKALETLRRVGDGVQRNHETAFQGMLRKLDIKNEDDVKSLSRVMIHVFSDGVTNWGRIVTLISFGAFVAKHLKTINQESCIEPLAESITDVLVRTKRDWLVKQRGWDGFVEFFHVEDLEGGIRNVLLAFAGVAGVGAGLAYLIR
Outline: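 Buffer of 10 mM HEPES pH 7.4 with 150 mM NaCl and 0.05% Tween 20 held 5 nM Mcl-1 and 1 nM fluorescein-tagged ligand (final). Compounds were tested as 11-point serial dilutions at 5% final DMSO, and binding was read by FP.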

[1] = test system: H929 multiple myeloma tumour line; assay: In vitro cytotoxicity, Microculture Tetrazolium Assay; assay type: cell-based
Method: The cytotoxicity studies were carried out on the H929 multiple myeloma tumour line.
The cells are distributed onto microplates and exposed to the test compounds for 48 hours.

[2] = fluorescence polarisation, Method 1, or Method 2
[3] = Homo sapiens, NCI-H929, 48 h, H929 cells, 48 hours exposure, MTT, read-out: IC50 (μM) MTT H929
[4] = fluorescence polarisation test, Method 2 values are underlined in the patent (underlining not visible here)

SMILES: CCc1sc2ncnc(OC(Cc3ccccc3OCc3ccnc(OC)n3)C(=O)O)c2c1-c1ccc(OCCN2CCN(C)CC2)c(Cl)c1C [Example 455, (2R)-2-[((5Sa)-5-{3-chloro-2-methyl-4-[2-(4-methylpiperazin-1-yl)ethoxy]phenyl}-6-ethylthieno[2,3-d]pyrimidin-4-yl)oxy]-3-{2-[(2-methoxypyrimidin-4-yl)methoxy]phenyl}propanoic acid]
- IC50 (Mcl-1 protein; [2]): 6.2e-09 M
- IC50 [1, 3]: 0.339 µM

SMILES: COc1ccccc1-c1nccc(COc2ccccc2CC(Oc2ncnc3sc(-c4ccc(OCc5cccnc5)cc4)c(-c4ccc(OCCN5CCN(C)CC5)c(Cl)c4C)c23)C(=O)O)n1 [Example 772, (2R)-2-[((5Sa)-5-{3-chloro-2-methyl-4-[2-(4-methylpiperazin-1-yl)ethoxy]phenyl}-6-[4-(pyridin-3-ylmethoxy)phenyl]thieno[2,3-d]pyrimidin-4-yl)oxy]-3-(2-{[2-(2-methoxyphenyl)pyrimidin-4-yl]methoxy}phenyl)propanoic acid]
- IC50 (Mcl-1 protein; [2]): 9.48e-10 M
- IC50 [1, 3]: 0.01 µM

SMILES: COc1cc(-c2sc3ncnc(OC(Cc4ccccc4OCc4ccnc(C(F)(F)F)n4)C(=O)O)c3c2-c2ccc(OCCN3CCN(C)CC3)c(Cl)c2C)ccc1F [Example 382, (2R)-2-{[(5Sa)-5-{3-chloro-2-methyl-4-[2-(4-methylpiperazin-1-yl)ethoxy]phenyl}-6-(4-fluoro-3-methoxyphenyl)thieno[2,3-d]pyrimidin-4-yl]oxy}-3-(2-{[2-(trifluoromethyl)pyrimidin-4-yl]methoxy}phenyl)propanoic acid]
- IC50 (Mcl-1 protein; [4]): 7.1e-09 M
- IC50 [1, 3]: 0.033 µM

SMILES: Cc1c(-c2c(-c3ccc(F)cc3)sc3ncnc(OC(Cc4ccccc4OCc4ccnc(-c5ccccc5CO)n4)C(=O)O)c23)ccc(OCCN(C)C)c1Cl [Example 832, (2R)-2-{[(5Sa)-5-{3-chloro-4-[2-(dimethylamino)ethoxy]-2-methylphenyl}-6-(4-fluorophenyl)thieno[2,3-d]pyrimidin-4-yl]oxy}-3-[2-({2-[2-(hydroxymethyl)phenyl]pyrimidin-4-yl}methoxy)phenyl]propanoic acid]
- IC50 (Mcl-1 protein; fluorescence polarisation test, Method 1, or Method 2 where the value is underlined (underlining not visible)): 3.15e-09 M
- IC50 ([1]; Homo sapiens, NCI-H929, 48 h, H929 cells, 48 hours exposure, cell viability, read-out: IC50 (μM) MTT H929): 0.004 µM

SMILES: COCCOc1ccccc1-c1nccc(COc2ccccc2CC(Oc2ncnc3sc(-c4ccc(F)cc4)c(-c4ccc(OCCN(C)C)c(Cl)c4C)c23)C(=O)O)n1 [Example 753, (2R)-2-{[(5Sa)-5-{3-chloro-4-[2-(dimethylamino)ethoxy]-2-methylphenyl}-6-(4-fluorophenyl)thieno[2,3-d]pyrimidin-4-yl]oxy}-3-[2-({2-[2-(2-methoxyethoxy)phenyl]pyrimidin-4-yl}methoxy)phenyl]propanoic acid]
- IC50 (Mcl-1 protein; [2]): 3e-09 M
- IC50 [1, 3]: 0.005 µM

SMILES: Cc1c(-c2c(-c3ccc(F)o3)sc3ncnc(OC(Cc4ccccc4OCc4ccc(F)cn4)C(=O)O)c23)ccc(OCCN2CCN(C)CC2)c1Cl [Example 163, (2R)-2-{[(5Sa)-5-{3-chloro-2-methyl-4-[2-(4-methylpiperazin-1-yl)ethoxy]phenyl}-6-(5-fluorofuran-2-yl)thieno[2,3-d]pyrimidin-4-yl]oxy}-3-{2-[(5-fluoropyridin-2-yl)methoxy]phenyl}propanoic acid]
- IC50 (Mcl-1 protein; [4]): 1.2e-08 M
- IC50 [1, 3]: 0.047 µM

SMILES: Cc1c(-c2c(-c3ccc(F)o3)sc3ncnc(OC(Cc4ccccc4OCc4ccnn4CC4CC4)C(=O)O)c23)ccc(OCCN2CCN(C)CC2)c1Cl [Example 186, (2R)-2-{[(5Sa)-5-{3-chloro-2-methyl-4-[2-(4-methylpiperazin-1-yl)ethoxy]phenyl}-6-(5-fluorofuran-2-yl)thieno[2,3-d]pyrimidin-4-yl]oxy}-3-(2-{[1-(cyclopropylmethyl)-1H-pyrazol-5-yl]methoxy}phenyl)propanoic acid]
- IC50 (Mcl-1 protein; [4]): 4.3e-09 M
- IC50 [1, 3]: 0.013 µM

SMILES: COc1ccccc1C[C@@H](Oc1ncnc2sc(-c3ccc(F)cc3)c(-c3cc(F)c(OCCN4CCN(C)CC4)c(Cl)c3C)c12)C(=O)O (single isomer, unassigned) [Example 664]
- IC50 (Mcl-1 protein; [2]): 3.86e-08 M
- IC50 ([1]; Homo sapiens, NCI-H929, 48 h, read-out: IC50 (μM) MTT H929, H929 cells, 48 hours exposure, MTT): 2.08 µM

SMILES: Cc1c(-c2c(-c3cncs3)sc3ncnc(OC(Cc4ccccc4)C(=O)O)c23)ccc(OCCN2CCN(C)CC2)c1Cl [Example 512, (2R)-2-{[(5Sa)-5-{3-chloro-2-methyl-4-[2-(4-methylpiperazin-1-yl)ethoxy]phenyl}-6-(1,3-thiazol-5-yl)thieno[2,3-d]pyrimidin-4-yl]oxy}-3-phenylpropanoic acid]
- IC50 (Mcl-1 protein; [2]): 1.3e-07 M
- IC50 [1, 3]: 7.42 µM

SMILES: CCN1CCN(CCOc2ccc(-c3c(-c4ccc(F)cc4)sc4ncnc(OC(Cc5ccccc5OCc5ccnc(-c6ccccc6F)n5)C(=O)O)c34)c(C)c2Cl)CC1 [Example 745, (2R)-2-{[(5Sa)-5-{3-chloro-4-[2-(4-ethylpiperazin-1-yl)ethoxy]-2-methylphenyl}-6-(4-fluorophenyl)thieno[2,3-d]pyrimidin-4-yl]oxy}-3-(2-{[2-(2-fluorophenyl)pyrimidin-4-yl]methoxy}phenyl)propanoic acid]
- IC50 (Mcl-1 protein; [2]): 9.48e-10 M
- IC50 [1, 3]: 0.003 µM

SMILES: COc1ccccc1CC(Oc1ncnc2sc(-c3ccc(F)cc3)c(-c3ccc(OCCN4CCN(C)CC4)c(Cl)c3C)c12)C(=O)OCOC(=O)C(C)(C)C [Example 643, {[(2R)-2-{[(5Sa)-5-{3-chloro-2-methyl-4-[2-(4-methylpiperazin-1-yl)ethoxy]phenyl}-6-(4-fluorophenyl)thieno[2,3-d]pyrimidin-4-yl]oxy}-3-(2-methoxyphenyl)propanoyl]oxy}methyl 2,2-dimethylpropanoate]
- IC50 (Mcl-1 protein; [2]): 6.6e-07 M
- IC50 [1, 3]: 0.303 µM

SMILES: COc1ccccc1CC(Oc1ncnc2sc(-c3ccco3)c(-c3ccc(OCCC4CCCN4C)c(Cl)c3C)c12)C(=O)O [Example 316, (2R)-2-{[(5Sa)-5-{3-chloro-2-methyl-4-[2-(1-methylpyrrolidin-2-yl)ethoxy]phenyl}-6-(furan-2-yl)thieno[2,3-d]pyrimidin-4-yl]oxy}-3-(2-methoxyphenyl)propanoic acid]
- IC50 (Mcl-1 protein; [4]): 7.7e-09 M
- IC50 [1, 3]: 1.46 µM

SMILES: COc1ccccc1CC(Oc1ncnc2sc(-c3ccc(F)c(Cl)c3)c(-c3ccc(OCCN4CCN(C)CC4)c(Cl)c3C)c12)C(=O)O [Example 532, (2R)-2-{[6-(3-chloro-4-fluorophenyl)-(5Sa)-5-{3-chloro-2-methyl-4-[2-(4-methylpiperazin-1-yl)ethoxy]phenyl}thieno[2,3-d]pyrimidin-4-yl]oxy}-3-(2-methoxyphenyl)propanoic acid]
- IC50 (Mcl-1 protein; [2]): 5.9e-08 M
- IC50 [1, 3]: 0.323 µM

SMILES: Cc1c(-c2c(-c3ccc(F)cc3)sc3ncnc(OC(Cc4ccccc4OCC(F)(F)F)C(=O)O)c23)ccc(OCCN(C)C)c1Cl [Example 127, (2R)-2-{[(5Sa)-5-{3-chloro-4-[2-(dimethylamino)ethoxy]-2-methylphenyl}-6-(4-fluorophenyl)thieno[2,3-d]pyrimidin-4-yl]oxy}-3-[2-(2,2,2-trifluoroethoxy)phenyl]propanoic acid]
- IC50 (Mcl-1 protein; [4]): 2e-08 M
- IC50 [1, 3]: 0.558 µM

SMILES: COc1ccc(-c2sc3ncnc(OC(Cc4ccccc4OCc4ccnc(-c5ccccc5OC)n4)C(=O)O)c3c2-c2ccc(OCCN3CCN(C)CC3)c(Cl)c2C)cc1 (single isomer, unassigned) [Example 761]
- IC50 (Mcl-1 protein; [2]): 1.07e-07 M
- IC50 ([1]; H929 cells, 48 hours exposure, MTT, read-out: IC50 (μM) MTT H929): 0.148 µM

SMILES: COc1ccccc1-n1nccc1COc1ccccc1CC(Oc1ncnc2sc(-c3ccc(F)cc3)c(-c3ccc(OCCN4CCN(C)CC4)c(Cl)c3C)c12)C(=O)O [Example 738, (2R)-2-{[(5Sa)-5-{3-chloro-2-methyl-4-[2-(4-methylpiperazin-1-yl)ethoxy]phenyl}-6-(4-fluorophenyl)thieno[2,3-d]pyrimidin-4-yl]oxy}-3-(2-{[1-(2-methoxyphenyl)-1H-pyrazol-5-yl]methoxy}phenyl)propanoic acid]
- IC50 (Mcl-1 protein; [2]): 3.78e-09 M
- IC50 [1, 3]: 0.103 µM

SMILES: CC#Cc1sc2ncnc(OC(Cc3ccccc3OC)C(=O)O)c2c1-c1ccc(OCCN2CCNCC2)c(Cl)c1C [Example 684, (2R)-2-{[(5Sa)-5-{3-chloro-2-methyl-4-[2-(piperazin-1-yl)ethoxy]phenyl}-6-(prop-1-yn-1-yl)thieno[2,3-d]pyrimidin-4-yl]oxy}-3-(2-methoxyphenyl)propanoic acid]
- IC50 (Mcl-1 protein; [2]): 1.9e-08 M
- IC50 [1, 3]: 2.23 µM

SMILES: CCOCCOc1nccc(COc2ccccc2CC(Oc2ncnc3sc(-c4ccc(F)cc4)c(-c4ccc(OCCN5CCN(C)CC5)c(Cl)c4C)c23)C(=O)O)n1 [Example 64, (2R)-2-{[(5Sa)-5-{3-chloro-2-methyl-4-[2-(4-methylpiperazin-1-yl)ethoxy]phenyl}-6-(4-fluorophenyl)thieno[2,3-d]pyrimidin-4-yl]oxy}-3-(2-{[2-(2-ethoxyethoxy)pyrimidin-4-yl]methoxy}phenyl)propanoic acid]
- IC50 (Mcl-1 protein; [4]): 4.4e-09 M
- IC50 [1, 3]: 0.018 µM

SMILES: Cc1c(-c2c(-c3ccc(F)cc3)sc3ncnc(OC(Cc4ccccc4OCc4ccnc(-c5ccccc5OCc5ccccc5)n4)C(=O)O)c23)ccc(OCCN2CCN(C)CC2)c1Cl [Example 725, (2R)-3-[2-({2-[2-(benzyloxy)phenyl]pyrimidin-4-yl}methoxy)phenyl]-2-{[(5Sa)-5-{3-chloro-2-methyl-4-[2-(4-methylpiperazin-1-yl)ethoxy]phenyl}-6-(4-fluorophenyl)thieno[2,3-d]pyrimidin-4-yl]oxy}propanoic acid]
- IC50 (Mcl-1 protein; [2]): 1.46e-09 M
- IC50 [1, 3]: 0.01 µM
